# According to paper PMC11790914, “Chemogenomics for steroid hormone receptors (NR3)” (Communications Chemistry, 2025):
# Where “and” joins values, the source holds several entries; their conditions need not be identical. Identical values can stand only once. Entries after “also recorded” stand apart in the source; their conditions may differ.
# How the values were obtained:
# HEK293T cells [1] = assay: Cytotoxicity: necrosis induction (red fluorescent dye for permeable plasma membranes); type: cell-based; settings: 24 h, necrotic cell count normalized to 0.1% DMSO, single replicates;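 further: compounds applied in DMEM high glucose with 0.1% FCS and 0.1% DMSO, necrotic HEK293T cells counted by red staining of cells whose plasma membranes had become permeable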
# ABL1 = biological target: T1, ABL1 (Homo sapiens, UniProt P00519); assay: Liability panel screening by DSF: ABL1; type: binding; settings: DSF, 20 µM, n=2; read-out: Mean ΔTM ABL1
# T1 construct: made in house
# Outline: (§1)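 Recombinant protein at 2 µM in 10 mM HEPES pH 7.5 with 500 mM NaCl was mixed with SYPRO Orange (1:1000) and heated at 3 °C/min up to 85 °C. Tm was taken as the Boltzmann-fit inflection point. Shifts are ∆Tm in K from technical duplicates.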
# AURKA = biological target: T2, AURKA (Homo sapiens, UniProt O14965); assay: Liability panel screening by DSF: AURKA; type: binding; settings: DSF, 20 µM, n=2; read-out: Mean ΔTM AURKA
# T2 construct: made in house
# T2 sequence (O14965 1-403): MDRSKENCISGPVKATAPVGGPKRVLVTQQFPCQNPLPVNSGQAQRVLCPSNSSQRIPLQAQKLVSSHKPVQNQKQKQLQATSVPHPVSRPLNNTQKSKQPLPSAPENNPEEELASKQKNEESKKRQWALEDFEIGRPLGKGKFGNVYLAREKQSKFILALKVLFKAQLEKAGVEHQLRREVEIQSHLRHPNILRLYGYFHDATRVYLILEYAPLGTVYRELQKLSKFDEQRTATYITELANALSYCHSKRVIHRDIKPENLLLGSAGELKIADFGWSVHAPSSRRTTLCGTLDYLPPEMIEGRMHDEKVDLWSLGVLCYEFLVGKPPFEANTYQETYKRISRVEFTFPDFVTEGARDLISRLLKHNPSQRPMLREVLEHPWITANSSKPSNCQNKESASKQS
# Outline: as §1
# CDK2 = biological target: T3, CDK2 (Homo sapiens, UniProt P24941); assay: Liability panel screening by DSF: CDK2; type: binding; settings: DSF, 20 µM, n=2; read-out: Mean ΔTM CDK2
# T3 construct: made in house
# Outline: as §1
# GSK3B = biological target: T4, GSK3B (Homo sapiens, UniProt P49841); assay: Liability panel screening by DSF: GSK3B; type: binding; settings: DSF, 20 µM, n=2; read-out: Mean ΔTM GSK3B
# T4 construct: made in house
# BRD4 = biological target: T5, BRD4 (Homo sapiens, UniProt O60885); assay: Liability panel screening by DSF: BRD4; type: binding; settings: DSF, 20 µM, n=2; read-out: Mean ΔTM BRD4
# T5 construct: This panel comprised ten highly ligandable kinases and bromodomains; made in house
# Outline: as §1
# CSNK1D = biological target: T6, CSNK1D (Homo sapiens, UniProt P48730); assay: Liability panel screening by DSF: CSNK1D; type: binding; settings: DSF, 20 µM, n=2; read-out: Mean ΔTM CSNK1D
# T6 construct: made in house
# Outline: as §1
# TRIM24 = biological target: T7, TRIM24 (Homo sapiens, UniProt O15164); assay: Liability panel screening by DSF: TRIM24; type: binding; settings: DSF, 20 µM, n=2; read-out: Mean ΔTM TRIM24
# T7 construct: This panel comprised ten highly ligandable kinases and bromodomains; made in house
# T7 sequence (O15164 899-1004 limits assumed): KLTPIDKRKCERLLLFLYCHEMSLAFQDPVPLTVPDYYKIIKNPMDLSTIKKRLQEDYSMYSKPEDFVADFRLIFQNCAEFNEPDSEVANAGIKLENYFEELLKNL
# Outline: as §1
# [2] = test system: NF-κB activity in HEK293 NF-κB reporter cells; assay: NF-kB activity assay (GFP reporter, ionomycin/PMA); type: cell-based; settings: n=3
# Outline: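 Reporter readout: GFP-expressing cells normalized to confluence, imaged every 90 min across 24 h after ionomycin (100 ng/mL)/PMA (10 ng/mL) stimulation of HEK293 cells pre-treated 4 h with compound (0.1% DMSO); triplicate independent experiments.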
# [3] = test system: ATF6 activity in Hela ATF6 reporter cells; assay: Endoplasmic reticulum stress assay (ATF6 Renilla luciferase reporter, tunicamycin); type: cell-based
# Outline: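 ER stress was induced by 100 ng/mL tunicamycin added 4 h after compound (0.1% DMSO) to HeLa ATF6 reporter cells. After 18 h more, Renilla luciferase signal was read and expressed relative to DMSO control, n=5 biological replicates.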
# HEK293T cells [4] = assay: Cytotoxicity: metabolic activity (WST-8 / CCK-8 assay); settings: HEK293T, 24 h, WST-8, normalized to 0.1% DMSO, single replicates
# HEK293T cells [5] = assay: Cytotoxicity: growth-rate (change in confluence over 24 h); settings: normalized to 0.1% DMSO control, single replicates (n=1...)
# HEK293T cells [6] = assay: Cytotoxicity: apoptosis induction (caspase-3/7 DEVD fluorogenic DNA dye); settings: HEK293T, 24 h, apoptotic cell count normalized to 0.1% DMSO, single replicates
# Method: Cells were incubated with the test compounds at the indicated concentrations solubilized with 0.1% DMSO for 24 h. Growth-rate was determined based on the change in confluence over 24 h normalized to the change in confluence of cells treated with the 0.1% DMSO control (n = 10). Metabolic activity was determined with a water-soluble tetrazolium-8 (WST-8) assay (n = 8) after 24 h treatment. Apoptotic cells were detected with a fluorogenic DNA dye coupled to the caspase-3/7 recognition sequence (DEVD) after 24 h treatment and the apoptotic cell count was normalized to 0.1% DMSO treated cells (n = 6).
# HEK293T cells (German Collection of Microorganisms and Cell Culture GmbH, DSMZ; #ACC305) were cultured in DMEM high glucose, supplemented with 10% fetal calf serum (FCS), sodium pyruvate (1 mM), penicillin (100 µ/mL) and streptomycin (100 µg/mL) at 37 °C and 5% (v/v) CO2, and seeded in pre-coated (10 µg/mL collagen G solution (Merck KgaA; #L7213) for 30 min at 37 °C) 96-well plates (2 × 10^5 cells per well). After 24 h, the cells were treated with the respective NR3 CG compound candidate at the recommended concentration, bexarotene (100 µM) or doxorubicin (30 µM) as positive controls in DMEM high glucose supplemented with 0.1% FCS, penicillin (100 µ/mL), streptomycin (100 µg/mL) and 0.1% DMSO, or 0.1% DMSO alone as an untreated control. Each sample was prepared in at least four biologically independent replicates. […] Thereafter, the medium was aspirated and the cells were incubated for 3 h with 90 µL DMEM high glucose supplemented with 0.2% FCS, penicillin (100 µ/mL) and streptomycin (100 µg/mL) and additionally containing 10 µL Cell Counting Kit 8 solution (CCK-8; MedChemExpress, Monmouth Junction, New York, USA; #HY-K0301), and absorbance was measured at 1 h, 2 h and 3 h of incubation at 450 nm on a Tecan Spark Cyto to assess metabolic activity of the cells. Before drug administration, after the first medium exchange, 24 h after drug administration, and after fluorescence imaging cell confluence was assessed using the Tecan Spark Cyto, to account for changes in cell confluence due to drug administration and cell handling. Compound effects on cell confluence, apoptosis, metabolic activity and necrosis were normalized to the vehicle control of each biological replicate individually.
# [7] = Homo sapiens, HeLa, single replicates n=1 to n=5, read-out: ER stress [rel. ATF6 activity]
# T6 sequence (P48730 whole entry, species assumed): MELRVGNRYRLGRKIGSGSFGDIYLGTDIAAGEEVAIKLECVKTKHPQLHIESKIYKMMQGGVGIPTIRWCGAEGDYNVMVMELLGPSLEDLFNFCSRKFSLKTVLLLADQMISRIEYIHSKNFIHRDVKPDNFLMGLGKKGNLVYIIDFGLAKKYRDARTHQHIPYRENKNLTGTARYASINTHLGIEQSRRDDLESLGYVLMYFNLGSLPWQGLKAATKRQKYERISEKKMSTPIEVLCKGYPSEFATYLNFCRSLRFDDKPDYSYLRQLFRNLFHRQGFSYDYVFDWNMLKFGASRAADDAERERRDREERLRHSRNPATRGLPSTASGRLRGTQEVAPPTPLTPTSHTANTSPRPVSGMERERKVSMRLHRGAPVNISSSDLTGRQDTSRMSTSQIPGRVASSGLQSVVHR
# T4 sequence (P49841 whole entry, species assumed): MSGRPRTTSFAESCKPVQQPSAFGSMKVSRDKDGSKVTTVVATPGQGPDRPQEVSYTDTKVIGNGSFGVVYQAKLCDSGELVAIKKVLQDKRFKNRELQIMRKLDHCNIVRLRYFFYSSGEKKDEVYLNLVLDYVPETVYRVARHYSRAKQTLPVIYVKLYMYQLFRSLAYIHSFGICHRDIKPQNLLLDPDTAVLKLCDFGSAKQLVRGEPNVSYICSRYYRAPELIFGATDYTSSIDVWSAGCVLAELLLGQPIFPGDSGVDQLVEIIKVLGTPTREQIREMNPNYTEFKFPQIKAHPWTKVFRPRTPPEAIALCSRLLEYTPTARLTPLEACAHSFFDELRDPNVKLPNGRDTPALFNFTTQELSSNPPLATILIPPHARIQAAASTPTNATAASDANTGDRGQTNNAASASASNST
# T1 sequence (P00519 whole entry, species assumed): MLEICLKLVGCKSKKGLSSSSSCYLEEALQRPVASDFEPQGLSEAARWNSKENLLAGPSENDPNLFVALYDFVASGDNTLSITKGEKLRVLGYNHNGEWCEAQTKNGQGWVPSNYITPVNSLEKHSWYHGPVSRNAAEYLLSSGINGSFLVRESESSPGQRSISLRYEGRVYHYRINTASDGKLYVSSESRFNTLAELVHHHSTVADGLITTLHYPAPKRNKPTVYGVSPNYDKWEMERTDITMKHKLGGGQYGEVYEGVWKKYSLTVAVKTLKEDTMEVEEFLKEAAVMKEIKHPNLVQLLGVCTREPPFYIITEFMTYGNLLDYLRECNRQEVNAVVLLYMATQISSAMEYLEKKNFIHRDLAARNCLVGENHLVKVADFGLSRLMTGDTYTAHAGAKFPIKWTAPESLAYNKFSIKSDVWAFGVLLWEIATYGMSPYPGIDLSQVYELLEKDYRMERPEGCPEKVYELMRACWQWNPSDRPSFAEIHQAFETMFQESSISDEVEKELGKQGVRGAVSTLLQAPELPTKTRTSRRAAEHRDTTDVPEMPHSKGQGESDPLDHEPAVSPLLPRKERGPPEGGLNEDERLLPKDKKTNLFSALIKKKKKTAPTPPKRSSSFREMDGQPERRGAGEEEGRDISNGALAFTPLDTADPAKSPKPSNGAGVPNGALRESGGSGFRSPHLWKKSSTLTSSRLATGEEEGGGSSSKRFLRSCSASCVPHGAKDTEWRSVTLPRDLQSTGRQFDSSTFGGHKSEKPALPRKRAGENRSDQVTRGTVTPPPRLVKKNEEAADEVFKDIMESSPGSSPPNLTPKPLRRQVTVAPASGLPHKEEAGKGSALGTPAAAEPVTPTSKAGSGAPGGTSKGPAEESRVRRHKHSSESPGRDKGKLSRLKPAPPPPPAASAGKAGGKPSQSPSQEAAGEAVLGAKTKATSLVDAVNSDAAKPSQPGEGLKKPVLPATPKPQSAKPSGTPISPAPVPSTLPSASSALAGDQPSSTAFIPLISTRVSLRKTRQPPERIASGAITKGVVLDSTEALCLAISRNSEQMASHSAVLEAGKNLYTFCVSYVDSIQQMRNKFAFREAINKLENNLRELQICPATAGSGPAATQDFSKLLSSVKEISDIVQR
compound,measurement,setting,value
CC/C(=C(/CC)c1ccc(O)cc1)c1ccc(O)cc1 [Diethylstilbestrol],Necrosis induction [NI],HEK293T cells [1]; 0.3 µM,0.86 and 0.98 and 1.34
same,Necrosis induction [NI],HEK293T cells [1]; 3 µM,0.69 and 0.58 and 0.64 and 0.72
same,ΔTm at 20 µM,ABL1,-0.96 °C
same,ΔTm at 20 µM,AURKA,-1.78 °C
same,ΔTm at 20 µM,CDK2,-5.57 °C
same,ΔTm at 20 µM,GSK3B,-3.54 °C
same,ΔTm at 20 µM,BRD4,-4.78 °C
same,ΔTm at 20 µM,CSNK1D,-0.81 °C
same,ΔTm at 20 µM,TRIM24,1.49 °C
same,Mean NFκB response,"[2]; 0.3 µM, 1,5 h",2313.08 GFP+-cells/confluence ∙ 1000
same,Mean NFκB response,"[2]; 0.3 µM, 4,5 h",2949.70 GFP+-cells/confluence ∙ 1000
same,Mean NFκB response,"[2]; 0.3 µM, 7,5 h",7538.46 GFP+-cells/confluence ∙ 1000
same,Mean NFκB response,"[2]; 0.3 µM, 10,5 h",18701.55 GFP+-cells/confluence ∙ 1000
same,Mean NFκB response,"[2]; 0.3 µM, 13,5 h",27206.00 GFP+-cells/confluence ∙ 1000
same,Mean NFκB response,"[2]; 0.3 µM, 16,6 h",33288.00 GFP+-cells/confluence ∙ 1000
same,Mean NFκB response,"[2]; 0.3 µM, 19,5 h",37133.33 GFP+-cells/confluence ∙ 1000
same,Mean NFκB response,"[2]; 0.3 µM, 22,5 h",40576.67 GFP+-cells/confluence ∙ 1000
same,Mean NFκB response,"[2]; 0.3 µM, 3 h",2350.33 GFP+-cells/confluence ∙ 1000
same,Mean NFκB response,"[2]; 0.3 µM, 6 h",4223.97 GFP+-cells/confluence ∙ 1000
same,Mean NFκB response,"[2]; 0.3 µM, 9 h",13522.53 GFP+-cells/confluence ∙ 1000
same,Mean NFκB response,"[2]; 0.3 µM, 12 h",23340.33 GFP+-cells/confluence ∙ 1000
same,Mean NFκB response,"[2]; 0.3 µM, 15 h",30431.00 GFP+-cells/confluence ∙ 1000
same,Mean NFκB response,"[2]; 0.3 µM, 18 h",35400.00 GFP+-cells/confluence ∙ 1000
same,Mean NFκB response,"[2]; 0.3 µM, 21 h",39313.33 GFP+-cells/confluence ∙ 1000
same,Mean NFκB response,"[2]; 0.3 µM, 24 h",41536.67 GFP+-cells/confluence ∙ 1000
same,Mean NFκB response,"[2]; 3 µM, 1,5 h",2624.20 GFP+-cells/confluence ∙ 1000
same,Mean NFκB response,"[2]; 3 µM, 4,5 h",2942.05 GFP+-cells/confluence ∙ 1000
same,Mean NFκB response,"[2]; 3 µM, 7,5 h",5380.00 GFP+-cells/confluence ∙ 1000
same,Mean NFκB response,"[2]; 3 µM, 10,5 h",14690.00 GFP+-cells/confluence ∙ 1000
same,Mean NFκB response,"[2]; 3 µM, 13,5 h",22563.33 GFP+-cells/confluence ∙ 1000
same,Mean NFκB response,"[2]; 3 µM, 16,6 h",28276.67 GFP+-cells/confluence ∙ 1000
same,Mean NFκB response,"[2]; 3 µM, 19,5 h",33253.33 GFP+-cells/confluence ∙ 1000
same,Mean NFκB response,"[2]; 3 µM, 22,5 h",36776.67 GFP+-cells/confluence ∙ 1000
same,Mean NFκB response,"[2]; 3 µM, 3 h",2684.18 GFP+-cells/confluence ∙ 1000
same,Mean NFκB response,"[2]; 3 µM, 6 h",3410.00 GFP+-cells/confluence ∙ 1000
same,Mean NFκB response,"[2]; 3 µM, 9 h",9373.33 GFP+-cells/confluence ∙ 1000
same,Mean NFκB response,"[2]; 3 µM, 12 h",19050.00 GFP+-cells/confluence ∙ 1000
same,Mean NFκB response,"[2]; 3 µM, 15 h",25776.67 GFP+-cells/confluence ∙ 1000
same,Mean NFκB response,"[2]; 3 µM, 18 h",30966.67 GFP+-cells/confluence ∙ 1000
same,Mean NFκB response,"[2]; 3 µM, 21 h",34670.00 GFP+-cells/confluence ∙ 1000
same,Mean NFκB response,"[2]; 3 µM, 24 h",38090.00 GFP+-cells/confluence ∙ 1000
same,ATF6 activity (tunicamycin-induced endoplasmic reticulum stress),"[3]; Hela ATF6 reporter cells, tunicamycin 100 ng/mL, 18 h, compounds at recommended concentrations, n = 5",lacked this effect; also recorded: failed to reduce ATF6 activity
same,activity at 0.3 µM,"[3]; Homo sapiens, HeLa, 0.3 µM, single replicates n=1 to n=5, read-out: ER stress [rel. ATF6 activity]",98%
same,activity at 3 µM,[3]; [7],98% and 101%
same,Metabolic activity [MA],HEK293T cells [4]; 0.3 µM,1.04 (3×) and 0.90 and 0.95 and 1.03 and 0.96 and 1.14
same,Metabolic activity [MA],HEK293T cells [4]; 3 µM,0.90 and 0.94 and 1.10 and 1.00 (2×) and 0.60 and 0.78
same,Growth rate [GR],HEK293T cells [5]; 0.3 µM,0.65 and 4.06 and 0.84 and 0.92 and 1.28 and 1.00 and 0.79 and 1.42 and 0.91 and 9.54
same,Growth rate [GR],HEK293T cells [5]; 3 µM,reduced the growth-rate and -0.21 and 0.65 and -0.29 and 0.04 and 0.36 and 0.21 and 0.28 and 1.17 and 0.46 and -0.41
same,Apoptosis induction [AI],HEK293T cells [6]; 0.3 µM,0.86 and 1.37 (2×) and 0.83 and 1.54 and 0.77
same,Apoptosis induction [AI],HEK293T cells [6]; 3 µM,0.65 and 0.97 and 0.69 and 0.85 and 1.67 and 1.65
CC#C[C@]1(O)CC[C@H]2[C@@H]3CCC4=CC(=O)CCC4=C3[C@@H](c3ccc(N(C)C)cc3)C[C@@]21C [Mifepristone],Necrosis induction [NI],HEK293T cells [1]; 3 µM,1.14 and 0.95 and 0.92 and 0.99
same,ΔTm at 20 µM,ABL1,0.11 °C
same,ΔTm at 20 µM,AURKA,-1.55 °C
same,ΔTm at 20 µM,CDK2,-0.0248 °C
same,ΔTm at 20 µM,GSK3B,-1.3 °C
same,ΔTm at 20 µM,BRD4,-2.39 °C
same,ΔTm at 20 µM,CSNK1D,0.0217 °C
same,ΔTm at 20 µM,TRIM24,-0.92 °C
same,Mean NFκB response,"[2]; 3 µM, 1,5 h",3613.33 GFP+-cells/confluence ∙ 1000
same,Mean NFκB response,"[2]; 3 µM, 4,5 h",4100.00 GFP+-cells/confluence ∙ 1000
same,Mean NFκB response,"[2]; 3 µM, 7,5 h",7536.67 GFP+-cells/confluence ∙ 1000
same,Mean NFκB response,"[2]; 3 µM, 10,5 h",17493.33 GFP+-cells/confluence ∙ 1000
same,Mean NFκB response,"[2]; 3 µM, 13,5 h",25396.67 GFP+-cells/confluence ∙ 1000
same,Mean NFκB response,"[2]; 3 µM, 16,6 h",31560.00 GFP+-cells/confluence ∙ 1000
same,Mean NFκB response,"[2]; 3 µM, 19,5 h",36246.67 GFP+-cells/confluence ∙ 1000
same,Mean NFκB response,"[2]; 3 µM, 22,5 h",39496.67 GFP+-cells/confluence ∙ 1000
same,Mean NFκB response,"[2]; 3 µM, 3 h",3656.67 GFP+-cells/confluence ∙ 1000
same,Mean NFκB response,"[2]; 3 µM, 6 h",4860.00 GFP+-cells/confluence ∙ 1000
same,Mean NFκB response,"[2]; 3 µM, 9 h",12946.67 GFP+-cells/confluence ∙ 1000
same,Mean NFκB response,"[2]; 3 µM, 12 h",21246.67 GFP+-cells/confluence ∙ 1000
same,Mean NFκB response,"[2]; 3 µM, 15 h",28726.67 GFP+-cells/confluence ∙ 1000
same,Mean NFκB response,"[2]; 3 µM, 18 h",34060.00 GFP+-cells/confluence ∙ 1000
same,Mean NFκB response,"[2]; 3 µM, 21 h",38440.00 GFP+-cells/confluence ∙ 1000
same,Mean NFκB response,"[2]; 3 µM, 24 h",40840.00 GFP+-cells/confluence ∙ 1000
same,activity at 3 µM,[3]; [7],99%
same,Metabolic activity [MA],HEK293T cells [4]; 3 µM,1.08 and 1.01 and 1.00 and 1.09 and 1.04 and 1.03 and 1.16 (2×)
same,Growth rate [GR],HEK293T cells [5]; 3 µM,0.65 and 3.36 and 0.73 and 0.97 and 1.04 and 0.86 and 1.00 and 1.72 and 1.53 and 3.99
same,Apoptosis induction [AI],HEK293T cells [6]; 3 µM,1.09 and 1.02 and 1.10 and 1.15 and 0.56 and 0.53
